pKi: −log10 of the molar value. Read-outs that look alike come from different tables or passages of the source.
Experiments:
IgG2a response, IL-10 = details: cited from earlier work; for IL-10 reduction: 1 day after complete treatment
[1] = tested on: L. (L.) infantum chagasi promastigotes; parameters: method as in PMID 25909893; details: cited from earlier work
[2] = tested on: L. (L.) amazonensis promastigotes; parameters: method as in PMID 25909893; details: cited from earlier work
human lymphocytes = details: cited from earlier work
[3] = target: L. (L.) donovani recombinant NH36; parameters: method as in PMID 25909893; details: ref 29; read-out: Ki, inhibition of NH36 enzymatic activity; cited from earlier work
[4] = cited from earlier work
L. (L.) infantum chagasi [5] = test: Liver parasite load in infected CB hamsters after chemotherapy; assay type: in vivo, CB golden hamster; details: 2.5 mg/kg/day ip 5 days, 10 days after complete treatment; for liver parasite load: untreated 16,334 LDU
Experimental: (§1) The efficacy of immucillins was also assayed in the CB golden hamster susceptible model. Females, 8 weeks old, were infected through the intracardiac route with 2 x 10^7 amastigotes of L. (L.) infantum chagasi (strain IOC-L 3324) isolated from infected hamsters spleens. Thirty days after infection, the animals were treated with 2.5 mg/kg daily doses of Glucantime, IA, IH or SMIH, through the ip route, for five days. Ten days after complete treatment the animals were euthanized, their parasite load was determined in livers and the renal function evaluated in sera samples as described above.

[6] = tested on: CD4+, CD8+ and CD19+ lymphocytes; test: CD4+, CD8+ and CD19+ lymphocyte frequencies by flow cytometry in splenocytes of uninfected treated mice; assay type: cell-based, BALB/c mice; details: for CD8+ T cell frequencies: day 1 after treatment
Experimental: (§2) Female BALB/c mice, 8 weeks old, were injected intraperitoneally with daily doses 2.5 mg/Kg of IA, IH, SMIH or Glucantime during five days and euthanized on day 1, 15 and 30 after complete treatment. For evaluation of the T cell response, spleens were removed and splenocytes were incubated for 24 h in vitro with the lysate of 10^6 stationary phase promastigotes of L. (L.) infantum chagasi (MHOM/BR/1974/PP75), with 25 μg/mL NH36, at 37°C and 5% CO2, during 72 h for the assay of the cytokine expression in the supernatants. Additionally, splenocytes from uninfected BALB/c mice either untreated or previously treated with IA, IH, SMIH or Glucantime were incubated in vitro with 10 μg/mL of each respective drug. For flow cytometry analysis (FACS analysis), splenocytes were incubated for 24 h with the antigens or drugs, labeled with anti-CD4FITC (clone GK1.5), anti-CD8FITC (clone 53–6.7) monoclonal antibodies (R&D systems, Inc) or with rat anti-mouse CD19-PerCP-Cy5.5 and 100,000 lymphocyte counts were acquired using a BD FACScalibur apparatus. Data was analyzed using the Flow-Jo program. The secretion of cytokines was evaluated in the supernatants of splenocytes by an ELISA assay.

L. (L.) infantum chagasi [7] = test: Liver parasite load (LDU) in infected BALB/c mice after chemotherapy; assay type: in vivo; details: 2.5 mg/kg/day ip 5 days
Experimental: (§3) Female BALB/c mice, 8 week old, were infected through the caudal vein with 10^7 amastigotes of L. (L.) infantum (strain IOC-L 3324) isolated from infected hamsters spleens. After 15 days of infection, mice (n = 5 per treatment) were injected by the intraperitoneal route (ip) with daily doses for 5 days of 2.5 mg/Kg of IA, IH, SMIH [30, 31] or the control drug Glucantime (Sanofi Aventis, batch 0929280802) (Fig 1). Immucillins were synthesized at the Ferrier Research Institute, Victoria University of Wellington, New Zealand. Uninfected and infected mice treated only with saline were included as controls for the treatment cohorts. On days 1, 15, and 30 after complete treatment, the animals were euthanized with CO2. Blood samples were collected for sera analysis and weight of spleens, livers and total body were determined. Spleens were also used for determination of cytokine expression. The parasite load was evaluated in Giemsa-stained liver smears and expressed in LDU values (Leishman Donovan units of Stauber = number of amastigotes per 1000 liver cell nuclei/mg of liver weight). The levels of urea, creatinine, glutamate pyruvate transaminase (GPT) and glutamate oxaloacetate transaminase ([…]) were assessed in plasma by standard clinical laboratory procedures using a Wiener lab Metrolab 2300 (Laborlife Análises Clínicas laboratory, Rio de Janeiro).

[8] = tested on: L. (L.) infantum chagasi amastigotes; parameters: method as in PMID 25909893; details: 10 μM; cited from earlier work
[9] = tested on: L. (L.) infantum chagasi infection; test: Survival, body and organ weights of infected treated BALB/c mice; assay type: in vivo; details: end of the experiment
Experimental: as §3

[10] = tested on: anti-NH36 IgG, IgG1 and IgG2a antibodies; test: Anti-NH36 antibody ELISA in sera of infected treated mice; assay type: in vivo, BALB/c mice
Experimental: The NH36 gene of Leishmania (L.) donovani (EMBL, Genbank and DDJB data bases, access number AY007193) with a His6tag at the C-terminal was cloned in E. coli Bl21DE3. Expression of the recombinant NH36 was obtained by induction with 0.5mM IPTG and overnight incubation at 20°C. Cultures were harvested by centrifugation and the pellets submitted to sonication during 10 minutes with cycles of 30 sec. and intervals of 55 sec. Sonicates were centrifuged and their supernatants separated for purification by column chromatography using Ni-NTA Superflow resin (Qiagen, USA). The column was eluted with a 50mM potassium phosphate, 300 mM NaCl buffer, pH: 8.0, using a 50 to 300mM imidazole gradient. The fraction containing NH36 recombinant antigen was recovered, dyalized and preserved at -80°C. Sera were collected from mice by intracardiac puncture on day 1, 15 and 30 following complete chemotherapy and assayed for the presence of anti-NH36 IgG, IgG1 and IgG2a antibodies. For that purpose the recombinant NH36 antigen (40 μg/mL) was solubilized in 0.1M sodium carbonate buffer (8.4 g of NaHCO3, 3.56 g of Na2CO3 per L; pH 9.6), and used to coat flat-bottom 96-well plates. Antibodies were detected by goat anti-mice IgG (Sigma), anti-IgG1 and anti-IgG2a peroxidase-conjugates (Southern Biotechnology Associates, Birmingham, AL, EEUU) in a 1:1000 dilution. The absorbance values at 492 ηm were compared using a 1:100 dilution of the serum samples. Results are expressed as mean values of triplicates. We used the mean average + 2 SD of serum from normal uninfected controls in order to calculate the cut-off value according to the Youden test.

macrophage = tested on: macrophage; parameters: method as in PMID 25909893; details: 10 μM; cited from earlier work
[11] = Body weight and renal/hepatic markers in sera of infected treated hamsters; assay type: in vivo, CB golden hamster
Experimental: as §1

splenocytes = test: Cytokine secretion by splenocytes of uninfected treated mice incubated in vitro with the respective drug; assay type: cell-based, BALB/c mice; details: splenocytes + 10 μg/ml drug
Experimental: as §2

amastigotes = details: cited from earlier work
visceral leishmaniasis = details: oral therapy, cited from earlier work
[12] = Renal and hepatic function markers in plasma of mice; assay type: in vivo, BALB/c mice
Experimental: as §3

[13] = day 1 after complete treatment, vs untreated infected controls
[14] = day 30 after complete treatment

## 1,3,4-tiadiazolium-2 aminide
IgG2a response, IL-10
  IL-10 reduction: 75%

## Nc1nc2c(CN3C[C@H](CO)[C@@H](O)C3)c[nH]c2c(=O)[nH]1 [DIG]
[1]
  concentrations inhibiting growth of promastigotes in vitro: nanomolar to micromolar
[2]
  concentrations inhibiting growth of promastigotes in vitro: nanomolar to micromolar

## O=c1[nH]cnc2c(CN3C[C@H](CO)[C@@H](O)C3)c[nH]c12 [DIH]
[1]
  concentrations inhibiting growth of promastigotes in vitro: nanomolar to micromolar
[2]
  concentrations inhibiting growth of promastigotes in vitro: nanomolar to micromolar

## Nc1ncnc2c([C@@H]3N[C@H](CO)[C@@H](O)[C@H]3O)c[nH]c12 [IA]
Human lymphocytes
  mutagenicity or chromosomal aberrations: did not induced mutagenicity or chromosomal aberrations
[3]
  pKi: 7.10
[4]; mouse, rat, guinea pig and cynomolgus macaque
  metabolic stability: metabolically stable
[4]; ref 37
  clearance from plasma: rapid clearance
[1]
  concentrations inhibiting growth of promastigotes in vitro: nanomolar to micromolar
L. (L.) infantum chagasi [5]
  liver parasite load reduction: 86%
  liver parasite load: 2,038 LDU
[6]
  CD19 B cell frequencies enhanced by previous treatment: ~ 30%
  CD8+ T cell frequencies: increased
[6]; day 1
  CD4+ T cell frequency, higher proportion than previously untreated controls: 57%
[6]; day 15
  CD4+ T cell frequency, higher proportion than previously untreated controls: 21%
[6]; day 30
  CD4+ T cell frequency, higher proportion than previously untreated controls: 29%
L. (L.) infantum chagasi [7]; [13]
  reduction of liver parasite load (LDU): 45%
L. (L.) infantum chagasi [7]; [14]
  reduction of liver parasite load (LDU): 89%
[8]
  inhibition of intracellular replication of amastigotes: 95%
[9]
  survival: 100%
[2]
  concentrations inhibiting growth of promastigotes in vitro: nanomolar to micromolar
[10]; day 1
  anti-NH36 IgG1 in infected untreated controls higher than in treated mice: 69%
[10]; day 15
  anti-NH36 IgG1 in infected untreated controls higher than in treated mice: 64%
[10]; day 30
  anti-NH36 IgG1 in infected untreated controls higher than in treated mice: 57%
macrophage
  damage to macrophage viability: no apparent damage
[11]; infected hamsters
  body weight: increase in body weight
  decrease of creatinine: 66%
splenocytes
  IL-10 levels: 113 pg/mL

## O=c1[nH]cnc2c([C@@H]3N[C@H](CO)[C@@H](O)[C@H]3O)c[nH]c12 [IH]
[3]
  pKi: 7.72
[1]
  concentrations inhibiting growth of promastigotes in vitro: nanomolar to micromolar
L. (L.) infantum chagasi [5]
  liver parasite load reduction: 70%
  liver parasite load: 4,905 LDU
[6]
  CD19 B cell frequencies enhanced by previous treatment: sustained
L. (L.) infantum chagasi [7]; [14]
  reduction of liver parasite load (LDU): 85%
[8]
  inhibition of intracellular replication of amastigotes: 95%
[9]
  survival: 100%
[2]
  concentrations inhibiting growth of promastigotes in vitro: nanomolar to micromolar
macrophage
  damage to macrophage viability: no apparent damage
[11]; hamster, in vivo
  decrease of creatinine: 63%
  reduction of GOT levels: ~ 30%
  reduction of blood urea levels: ~ 50%
[11]; infected hamsters
  body weight: increase in body weight

## CCCCCCCCCCCCCCCCOP(=O)([O-])OCC[N+](C)(C)C [Miltefosine]
IgG2a response, IL-10; ref 46
  enhancement of the IgG2a response: 75%
amastigotes; ref 46
  reduction in parasite burden: 50%
Visceral leishmaniasis; Brazil
  cure rates: 50%
Visceral leishmaniasis; India
  success rates: 94%

## Nc1nc(O)c2[nH]cc(CNC(CO)CO)c2n1 [SMIG]
[1]
  concentrations inhibiting growth of promastigotes in vitro: nanomolar to micromolar
[2]
  concentrations inhibiting growth of promastigotes in vitro: nanomolar to micromolar

## N.N.[Cl][Pt][Cl] [cisplatin]
IgG2a response, IL-10
  IL-10 reduction: 50%
IgG2a response, IL-10; ref 30, 31
  enhancement of the IgG2a response: 50–55%
amastigotes; ref 30
  reduction in parasite burden: 75%
amastigotes; ref 31
  reduction in parasite burden: 80%
amastigotes; ref 32
  reduction in parasite burden: 50%

## Glucantime [reference compound]
[6]
  CD4+ T cell frequencies (in words): high CD4+ T cell increase (p<0.05) only on day 1
  CD19 B cell frequencies enhanced by previous treatment: ~ 30%
  CD8+ T cell frequencies: increased
L. (L.) infantum chagasi [7]; [13]
  reduction of liver parasite load (LDU): 46%
L. (L.) infantum chagasi [7]; [14]
  reduction of liver parasite load (LDU): 88%
[9]
  survival: 100%
[12]
  renal (urea and creatinine) and hepatic (GOT and GTP) toxicity: Pronounced toxicity
[12]; 2.5 mg/kg/day ip 5 days
  increase in GOT serum level: 6 fold
  increase in GPT serum level: 9 fold
  increase in creatinine serum level: 9 fold
  increase in urea serum level: 4 fold
[10]; day 1
  anti-NH36 IgG2a increase vs untreated infected controls: 67%
[11]; infected hamsters
  body weight: increase in body weight
  decrease of creatinine: 41%
  reduction of blood urea levels: ~ 50%
splenocytes
  IL-10 levels: 509 pg/mL

Source: paper PMC4689457, “Immucillins ImmA and ImmH Are Effective and Non-toxic in the Treatment of Experimental Visceral Leishmaniasis” (PLoS Neglected Tropical Diseases, 2015)
